From patent publication US4552965A, “2α, 3β, 4aβ, 8aα-Decahydro-3-(4-phenyl-1-piperidinyl)-2-naphthalenol” (University of California, priority 1984, dated 1985)

Tested on: Torpedo californica electric organ synpatic vesicles
Assay: Inhibition of ATP-dependent uptake of radioactive ACh by purified Torpedo electric organ synaptic vesicles in vitro
Type: biochemical
Settings: for IC50: purified Torpedo vesicles, room temperature, approximately 30 minutes, neutral pH, approximately 5 mM ATP, 50 μM radioactive ACh, read-out: IC50 (inhibition of vesicular ACh uptake)
Experimental: For example, purified Torpedo californica electric organ synpatic vesicles uptake ACh in vitro in the presence of ATP. Such vesicles are incubated at room temperature for approximately 30 minutes in isosmotic buffer at neutral PH, the buffer containing approximately 5 mM ATP and 50 μM radioactive ACh, and the radioactivity accumulated by the washed vesicles is then measured by liquid scintillation spectroscopy. By varying the concentration of the compound to be tested to determine its inhibitory effect on ACh uptake, a dose response curve can be deduced including the IC50.

| SMILES | IC50 | concentration needed relative to DPPN for comparable blockade of vesicular uptake of ACh (relative to DPPN) | times more effective than AH 5183 in preventing ACh uptake by the vesicles (relative to AH 5183) |
| --- | --- | --- | --- |
| OC1CCCCC1N1CCC(c2ccccc2)CC1 (stereo not shown) [AH 5183, 2-(4-Phenylpiperidino)-cyclohexanol] | 40 µM | at least four |  |
| O[C@@H]1C[C@H]2CCCC[C@@H]2C[C@H]1N1CCC(c2ccccc2)CC1 (relative stereo) [DPPN, (2α, 3β, 4aβ, 8aα)-decahydro-3-(4-phenyl-1-piperidinyl)-2-naphthalenol] | 10 µM |  | approximately four |
